Assay results: patent US20250255848A1, “SUBSTITUTED 6,7-DIHYDRO-5H-BENZO[7]ANNULENE DERIVATIVES, PROCESSES FOR THEIR PREPARATION AND THERAPEUTIC USES THEREOF” (SANOFI, priority 2022, published 2025)

Biological target: ERα (Homo sapiens (Human), UniProt P03372)
Experiment: Estrogen receptor degradation activity: breast cancer cell ERα in cell western assay
Assay type: cell-based
Conditions: MCF7 cells; for % Degradation At 0.3 μM: 4 hours, normalised to fulvestrant 0.1 μM and DMSO; for DC50 / IC50: 4 hours post compound addition, concentration which degrades 50% of the estrogen receptor; for DC50: read-out: Degradation IC50
Method: Said test involves measuring the in vitro degradation activity of the compounds of the Table 1a.
The measurements of the degradation activities were made using a breast cancer cell ERα in cell western assay as described hereunder.
MCF7 cells (ATCC) were seeded in 384 wells microplate (collagen coated) at a concentration of 10000 cells/30 μL per well in red phenol free MEM alpha medium (invitrogen) containing 5% charcoal dextran striped FBS. The following day, 9 points serial 1:5 dilution of each compound was added to the cells in 2.5 μL at final concentrations ranging from 0.3-0.0000018 μM (in table 2), or 0.1 μM for fulvestrant (using as positive control). At 4 hours post compound addition the cells were fixed by adding 25 μL of formalin (final concentration 5% formalin containing 0.1% triton) for 10 minutes at room temperature and then washed twice with PBS. Then, 50 μL of LI-COR blocking buffer containing 0.1% Triton was added to plate for 30 minutes at room temperature. LI-COR blocking buffer was removed and cells were incubated overnight at cold room with 50 μL anti-ER rabbit monoclonal antibody (Thermo scientific MA1-39540) diluted at 1:1000 in LI-COR blocking buffer containing 0.1% tween-20. Wells which were treated with blocking buffer but no antibody were used as background control. Wells were washed twice with PBS (0.1% tween-20) and incubated at 37° C. for 60 minutes in LI-COR (0.1% tween-20) containing goat anti-rabbit antibody Alexa 488 (1:1000) and Syto-64 a DNA dye (2 μM final concentration). Cells were then washed 3 times in PBS and scanned in ACUMEN explorer (TTP-Labtech). Integrated intensities in the green fluorescence and red fluorescence were measured to determine the levels of ERα and DNA respectively.
The degradation activity with respect to estrogen receptors in this test is given by the concentration which degrades 50% of the estrogen receptor (or IC50) in nM.
The % of ERα levels decrease were determined as follows: % inhibition=100*(1−(sample−fulvestrant:DMSO−fulvestrant)).

Sequence of ERα (P03372 whole entry): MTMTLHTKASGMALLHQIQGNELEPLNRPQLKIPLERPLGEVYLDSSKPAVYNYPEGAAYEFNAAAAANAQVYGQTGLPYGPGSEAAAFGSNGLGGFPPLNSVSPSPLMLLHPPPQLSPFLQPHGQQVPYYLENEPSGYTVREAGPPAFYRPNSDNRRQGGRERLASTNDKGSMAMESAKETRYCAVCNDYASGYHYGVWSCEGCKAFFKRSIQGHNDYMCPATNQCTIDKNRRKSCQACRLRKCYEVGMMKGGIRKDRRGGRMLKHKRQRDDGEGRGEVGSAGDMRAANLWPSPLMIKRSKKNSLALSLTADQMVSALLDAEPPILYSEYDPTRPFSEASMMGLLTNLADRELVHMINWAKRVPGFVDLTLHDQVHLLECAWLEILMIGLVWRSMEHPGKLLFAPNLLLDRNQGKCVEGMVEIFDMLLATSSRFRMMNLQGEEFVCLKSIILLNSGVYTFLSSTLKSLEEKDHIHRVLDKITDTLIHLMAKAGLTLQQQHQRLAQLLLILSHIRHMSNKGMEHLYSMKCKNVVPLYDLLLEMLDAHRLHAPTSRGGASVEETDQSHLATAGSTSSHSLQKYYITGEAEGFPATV

SMILES	% Degradation At 0.3 μM [%]	DC50 [nM]	IC50 [nM]
O=C(O)c1ccc2c(c1)CCCC(C1CC13CCC3)=C2c1ccc(C=C2CN(CCCF)C2)cc1 (single isomer, unassigned) [Compound 35, 9-(4-((1-(3-fluoropropyl)azetidin-3-ylidene)methyl)phenyl)-8-(spiro[2.3]hexan-1-yl)-6,7-dihydro-5H-benzo[7]annulene-3-carboxylic acid]	91	0.3	
O=C(O)c1ccc2c(c1)CCCC(C1CC13CCC3)=C2c1ccc(C=C2CN(CCCF)C2)cc1 (single isomer, unassigned) [Compound 36, 9-(4-((1-(3-fluoropropyl)azetidin-3-ylidene)methyl)phenyl)-8-(spiro[2.3]hexan-1-yl)-6,7-dihydro-5H-benzo[7]annulene-3-carboxylic acid]	92	0.2	
O=C(O)c1ccc2c(c1)CCCC(c1ccc(Cl)cc1Cl)=C2c1ccc(C=C2CN(CC(F)CF)C2)cc1 (single isomer, unassigned) [Compound 69, 8-(2,4-dichlorophenyl)-9-(4-((1-(2,3-difluoropropyl)azetidin-3-ylidene)methyl)phenyl)-6,7-dihydro-5H-benzo[7]annulene-3-carboxylic acid]	74	1.3	
O=C(O)c1ccc2c(c1)CCCC(c1ccc(Cl)cc1Cl)=C2c1ccc(C=C2CN(CC(F)CF)C2)cc1 (single isomer, unassigned) [Compound 70, 8-(2,4-dichlorophenyl)-9-(4-((1-(2,3-difluoropropyl)azetidin-3-ylidene)methyl)phenyl)-6,7-dihydro-5H-benzo[7]annulene-3-carboxylic acid]	81	1.8	
O=C(O)c1ccc2c(c1)CCCC(c1ccc(F)c(F)c1C(F)(F)F)=C2c1ccc(C=C2CN(CCCF)C2)cc1 [Compound 2, 8-(3,4-difluoro-2-(trifluoromethyl)phenyl)-9-(4-((1-(3-fluoropropyl)azetidin-3-ylidene)methyl)phenyl)-6,7-dihydro-5H-benzo[7]annulene-3-carboxylic acid]	90		1
COc1c(C)cccc1C1=C(c2ccc(C=C3CN(CCCF)C3)cc2)c2ccc(C(=O)O)cc2CCC1 [Compound 3, 9-(4-((1-(3-fluoropropyl)azetidin-3-ylidene)methyl)phenyl)-8-(2-methoxy-3-methylphenyl)-6,7-dihydro-5H-benzo[7]annulene-3-carboxylic acid]	90		0.7
COc1cccc(C)c1C1=C(c2ccc(C=C3CN(CCCF)C3)cc2)c2ccc(C(=O)O)cc2CCC1 [Compound 4, 9-(4-((1-(3-fluoropropyl)azetidin-3-ylidene)methyl)phenyl)-8-(2-methoxy-6-methylphenyl)-6,7-dihydro-5H-benzo[7]annulene-3-carboxylic acid]	90		1.1
CCc1cccc(C2=C(c3ccc(C=C4CN(CCCF)C4)cc3)c3ccc(C(=O)O)cc3CCC2)c1C(F)(F)F [Compound 8, 8-(3-ethyl-2-(trifluoromethyl)phenyl)-9-(4-((1-(3-fluoropropyl)azetidin-3-ylidene)methyl)phenyl)-6,7-dihydro-5H-benzo[7]annulene-3-carboxylic acid]	93		0.8
Cc1ccc(C2=C(c3ccc(C=C4CN(CCCF)C4)cc3)c3ccc(C(=O)O)cc3CCC2)c(C)c1F [Compound 12, 8-(3-fluoro-2,4-dimethylphenyl)-9-(4-((1-(3-fluoropropyl)azetidin-3-ylidene)methyl)phenyl)-6,7-dihydro-5H-benzo[7]annulene-3-carboxylic acid]	92		0.7
COc1cc(C)cc(C)c1C1=C(c2ccc(C=C3CN(CCCF)C3)cc2)c2ccc(C(=O)O)cc2CCC1 [Compound 14, 9-(4-((1-(3-fluoropropyl)azetidin-3-ylidene)methyl)phenyl)-8-(2-methoxy-4,6-dimethylphenyl)-6,7-dihydro-5H-benzo[7]annulene-3-carboxylic acid]	91		0.6

The remaining compounds from weak to strong by IC50, led by results:

% Degradation At 0.3 μM [%]	DC50 [nM]	IC50 [nM]	SMILES
96		0.6	O=C(O)c1ccc2c(c1)CCCC(c1c(F)cccc1OC(F)(F)F)=C2c1ccc(C=C2CN(CCCF)C2)cc1 [Compound 9, 8-(2-fluoro-6-(trifluoromethoxy)phenyl)-9-(4-((1-(3-fluoropropyl)azetidin-3-ylidene)methyl)phenyl)-6,7-dihydro-5H-benzo[7]annulene-3-carboxylic acid]
94		0.5	COc1c(F)ccc(C)c1C1=C(c2ccc(C=C3CN(CCCF)C3)cc2)c2ccc(C(=O)O)cc2CCC1 [Compound 7, 8-(3-fluoro-2-methoxy-6-methylphenyl)-9-(4-((1-(3-fluoropropyl)azetidin-3-ylidene)methyl)phenyl)-6,7-dihydro-5H-benzo[7]annulene-3-carboxylic acid]
93		0.5	Cc1cc(C)c(C2=C(c3ccc(C=C4CN(CCCF)C4)cc3)c3ccc(C(=O)O)cc3CCC2)c(C)c1 [Compound 10, 9-(4-((1-(3-fluoropropyl)azetidin-3-ylidene)methyl)phenyl)-8-mesityl-6,7-dihydro-5H-benzo[7]annulene-3-carboxylic acid]
91		0.5	O=C(O)c1ccc2c(c1)CCCC(c1c(Cl)cccc1OC(F)(F)F)=C2c1ccc(C=C2CN(CCCF)C2)cc1 [Compound 17, 8-(2-chloro-6-(trifluoromethoxy)phenyl)-9-(4-((1-(3-fluoropropyl)azetidin-3-ylidene)methyl)phenyl)-6,7-dihydro-5H-benzo[7]annulene-3-carboxylic acid]
92		0.4	Cc1cc(C)c(C2=C(c3ccc(C=C4CN(CCCF)C4)cc3)c3ccc(C(=O)O)cc3CCC2)c(Cl)c1 [Compound 11, 8-(2-chloro-4,6-dimethylphenyl)-9-(4-((1-(3-fluoropropyl)azetidin-3-ylidene)methyl)phenyl)-6,7-dihydro-5H-benzo[7]annulene-3-carboxylic acid]
91		0.4	Cc1ccc(C2=C(c3ccc(C=C4CN(CCCF)C4)cc3)c3ccc(C(=O)O)cc3CCC2)c(C)c1Cl [Compound 13, 8-(3-chloro-2,4-dimethylphenyl)-9-(4-((1-(3-fluoropropyl)azetidin-3-ylidene)methyl)phenyl)-6,7-dihydro-5H-benzo[7]annulene-3-carboxylic acid]
91		0.4	CC(F)(F)c1cc(F)ccc1C1=C(c2ccc(C=C3CN(CCCF)C3)cc2)c2ccc(C(=O)O)cc2CCC1 [Compound 15, 8-(2-(1,1-difluoroethyl)-4-fluorophenyl)-9-(4-((1-(3-fluoropropyl)azetidin-3-ylidene)methyl)phenyl)-6,7-dihydro-5H-benzo[7]annulene-3-carboxylic acid]
92		0.3	Cc1cccc(C(F)(F)F)c1C1=C(c2ccc(C=C3CN(CCCF)C3)cc2)c2ccc(C(=O)O)cc2CCC1 [Compound 1, 9-(4-((1-(3-fluoropropyl)azetidin-3-ylidene)methyl)phenyl)-8-(2-methyl-6-(trifluoromethyl)phenyl)-6,7-dihydro-5H-benzo[7]annulene-3-carboxylic acid]
93		0.3	CCc1c(C2=C(c3ccc(C=C4CN(CCCF)C4)cc3)c3ccc(C(=O)O)cc3CCC2)cccc1C(F)(F)F [Compound 5, 8-(2-ethyl-3-(trifluoromethyl)phenyl)-9-(4-((1-(3-fluoropropyl)azetidin-3-ylidene)methyl)phenyl)-6,7-dihydro-5H-benzo[7]annulene-3-carboxylic acid]
91		0.3	COc1cccc(C(F)(F)F)c1C1=C(c2ccc(C=C3CN(CCCF)C3)cc2)c2ccc(C(=O)O)cc2CCC1 [Compound 6, 9-(4-((1-(3-fluoropropyl)azetidin-3-ylidene)methyl)phenyl)-8-(2-methoxy-6-(trifluoromethyl)phenyl)-6,7-dihydro-5H-benzo[7]annulene-3-carboxylic acid]
92		0.3	O=C(O)c1ccc2c(c1)CCCC(c1c(Cl)cccc1C(F)(F)F)=C2c1ccc(C=C2CN(CCCF)C2)cc1 [Compound 16, 8-(2-chloro-6-(trifluoromethyl)phenyl)-9-(4-((1-(3-fluoropropyl)azetidin-3-ylidene)methyl)phenyl)-6,7-dihydro-5H-benzo[7]annulene-3-carboxylic acid]
